Test results reported in patent US9474277B2, “Pyrazole compound and pesticidal mixtures comprising a pyrazole compound” (BASF SE, priority 2012, dated 2016).
Read-outs that look alike come from different tables or passages of the source.

Experiments:
[1] = system: Blumeria graminis f. sp. tritici; assay: Test 12 - Control of powdery mildew on wheat, seed treatment; assay type: in vivo; details: single active, untreated 82% disease
Description: Test 12—Control of Powdery Mildew on Wheat Caused by Blumeria graminis f. sp. tritici
Seeds of wheat were treated in a treater as standard equipment. The products and concentrations are listed below. At the same day the plants were seeded in pots. 14 days later at 19° C. and 70% humidity the plants were inoculated with spores of Blumeria graminis f. sp. tritici (=syn. Erysiphe garminis f. sp. tritici) by shaking heavily infestated stock plants over the treated pots. After cultivation in the greenhouse for 7 days at 22-26° C. and a relative humidity between 60 to 90% the extent of fungal attack on the leaves was visually assessed as % diseased leaf area.

[2] = system: Rice Plant Hopper (Nilaparvata lugens); assay: B.7 Rice plant hopper test on sprayed rice seedlings; assay type: in vivo; details: 500 ppm, after 72 hours
Description: B.7 Rice Plant Hopper (Nilaparvata lugens)
(§1) Rice seedlings were cleaned and washed 24 hours before spraying. The active compounds were formulated in 50:50 acetone: water and 0.1% vol/vol surfactant (EL 620) was added. Potted rice seedlings were sprayed with 5 ml test solution, air dried, placed in cages and inoculated with 10 adults. Treated rice plants were kept at 28-29° C. and relative humidity of 50-60%. Percent mortality was recorded after 72 hours.

Rhizoctonia solani = assay: Test 10 - Control of Rhizoctonia solani, corn seed treatment, plant height; assay type: in vivo; details: single active compound, 14 days
Description: Test 10—Control of Rhizoctonia solani
The compounds were dissolved in Acetone. Seeds of com were treated in a treater as standard equipment. The products and concentrations are listed below. After the treatment the seeds were sown in pots, and rye seeds (infected with Rhizoctonia solani) were placed next to the seeds (1 seed per corn seed).
After cultivation in the greenhouse for 14 days at 20° C. and a relative humidity of 70% the plant height of the plants were measured.

Altemaria solani = details: single active compound, 7 days after inoculation
[3] = system: Greenbug Aphid, Schizaphis graminum; assay: Test 13 - Activity against greenbug aphid, wheat seed treatment; assay type: in vivo; details: single active, aphids counted 4 DAI
Description: Test 13—Activity Against Greenbug Aphid, Schizaphis graminum: Wheat seed treatment
Technical material was dissolved in acetone at sub-lethal doses. 50 μL of solution was added to a 20-ml scintillation vial, 15 wheat seeds were added, and the seeds were coated by vortexing the vial for 1 minute. The seeds were allowed to dry and planted later the same day. Seeds were planted individually in a moistened, fertilized soil mixture of 1:1 North Carolina loamy sand (Sandhill soil):play sand in 40.32 cm^2 pots. Pots were arranged in a randomized complete block design in the greenhouse and top-watered daily. Plant emergence and shoot phytotoxicity were evaluated 4, 7, and 14 days after treatment (DAT). At 14 DAT (true leaf stage), each plant was infested with 10 greenbug aphids (Schizaphis graminum) of mixed stages. Plants were maintained on light carts in a randomized complete block design and bottom-watered as needed. Twelve replicates (pots) were prepared for plant emergence and five replicates were prepared for infestation. Live aphids were counted 4 DAI and the mean percent population reduction relative to the solvent blank control was calculated.

Puccinia recondita = assay: Test 11 - Control of brown rust on wheat, seed treatment; assay type: in vivo; details: single active, untreated 90% disease
Description: Test 11—Control of Brown Rust on Wheat Caused by Puadnia recondita
Seeds of wheat were treated in a treater as standard equipment. The products and concentrations are listed below. At the same day the plants were seeded in pots. 14 days later at 19° C. and 70% humidity the plants were inoculated with spores of Puccinia recondita. To ensure the success the artificial inoculation, the plants were transferred to a humid chamber without light and a relative humidity of 95 to 99% and 20 to 24° C. for 24 h. Then the trial plants were cultivated for 6 days in a greenhouse chamber at 20-24° C. and a relative humidity between 65 and 70%. The extent of fungal attack on the leaves was visually assessed as % diseased leaf area.

[4] = system: Rice Green Leafhopper (Nephotettix virescens); assay: B.9 Rice green leafhopper test on sprayed rice seedlings; assay type: in vivo; details: 500 ppm, after 72 hours
Description: B.9 Rice Green Leafhopper (Nephotettix virescens)
as §1, with “water,” for “water”

c1ccc2[nH]c(-c3cscn3)nc2c1 [Thiabendazol]
Observed efficacy (%) ([1]; 250 g a.i./100 kg seeds): 2%

CCN(C(=O)c1cnn(C2CC3(C2)OCCO3)c1C)c1ccnnc1 [Compound C-15]
mortality in comparison with untreated controls [2]: 75%

COC(=O)N(OC)c1ccccc1COc1ccn(-c2ccc(Cl)cc2)n1 [Pyraclostrobin, methyl N-{2-[1-(4-chlorophenyl)-1H-pyrazol-3-yloxymethyl]phenyl}(N-methoxy)carbamate, reference compound]
Observed efficacy (%) (Rhizoctonia solani; 63 g a.i./100 kg seeds): 49% | Observed efficacy (Altemaria solani; 0.016 ppm): 16%

Cn1cc(C(=O)Nc2ccccc2-c2cc(F)c(F)c(F)c2)c(C(F)F)n1 [Fluxapyroxad, reference compound]
Observed efficacy (%) (Rhizoctonia solani; 4 g a.i./100 kg seeds): 74% | Observed efficacy (%) ([3]; table with fungicides F.1 to F.11, 20 g a.i./100 kg seeds): 0% | Observed efficacy (%) (Puccinia recondita; 1 g a.i./100 kg seeds): 16%

N#Cc1c[nH]cc1-c1cccc2c1OC(F)(F)O2 [Fludioxonil, 4-(2,2-difluorobenzo[1,3]dioxol-4-yl)-1H-pyrrole-3-carbonitrile, reference compound]
Observed efficacy (Altemaria solani; 0.063 ppm): 26%

CNC(=O)c1cc(Cl)cc(C)c1NC(=O)c1cc(Br)nn1-c1ncccc1Cl [chloranthraniliprole]
Observed efficacy (%) ([3]; table with insecticides A.1 to A.17, 75 g a.i./100 kg seeds): 30%

COCC(=O)N(c1c(C)cccc1C)[C@H](C)C(=O)OC [Mefenoxam, reference compound]
Observed efficacy (%) (Rhizoctonia solani; 63 g a.i./100 kg seeds): 0% | Observed efficacy (%) ([3]; table with fungicides F.1 to F.11, 15 g a.i./100 kg seeds): 6% | Observed efficacy (%) ([1]; 4 g a.i./100 kg seeds): 0%

CC1(C)CC/C(=C\c2ccc(Cl)cc2)C1(O)Cn1cncn1 (stereo not shown) [Triticonazol, (5E)-5-[(4-chlorophenyl)methylene]-2,2-dimethyl-1-(1H-1,2,4-triazol-1-ylmethyl)cyclopentanol, reference compound]
Observed efficacy (%) (Rhizoctonia solani; 16 g a.i./100 kg seeds): 20% | Observed efficacy (%) (Puccinia recondita; 16 g a.i./100 kg seeds): 49% | Observed efficacy (%) ([1]; 16 g a.i./100 kg seeds): 60% | Observed efficacy (Altemaria solani; 0.063 ppm): 27%

CCN(C(=O)c1cnn(C(C)C2CC23CC3)c1C)c1ccnnc1 (stereo not shown) [Compound C-26]
mortality in comparison with untreated controls [4]: at least 75%

CCN(C(=O)c1cnn(C(C)C2(C#N)CC2)c1C)c1ccnnc1 (stereo not shown) [Compound I-698]
Observed efficacy (%) (Rhizoctonia solani; 250 g a.i./100 kg seeds): 3% | Observed efficacy (%) ([3]; table with fungicides F.1 to F.11, 150 g a.i./100 kg seeds): 51% | Observed efficacy (%) ([3]; table with insecticides A.1 to A.17, 150 g a.i./100 kg seeds): 74% | Observed efficacy (%) (Puccinia recondita; 63 g a.i./100 kg seeds): 4% | Observed efficacy (%) ([1]; 250 g a.i./100 kg seeds): 15% | Observed efficacy (Altemaria solani; 1 ppm): 7% | Observed efficacy (Altemaria solani; 63 ppm): 3%

CCN(C(=O)c1cnn(C(C)C(F)F)c1C)c1ccnnc1 (stereo not shown) [Compound I-680]
Observed efficacy (%) (Rhizoctonia solani; 63 g a.i./100 kg seeds): 0% | Observed efficacy (%) ([3]; table with fungicides F.1 to F.11, 2.9 g a.i./100 kg seeds): 7% | Observed efficacy (%) ([3]; table with insecticides A.1 to A.17, 2.9 g a.i./100 kg seeds): 23% | Observed efficacy (%) (Puccinia recondita; 250 g a.i./100 kg seeds): 0% | Observed efficacy (%) ([1]; 250 g a.i./100 kg seeds): 15% | Observed efficacy (Altemaria solani; 63 ppm): 3%

CCN(C(=O)c1cnn(C(C)C(C)C)c1C)c1ccnnc1 (stereo not shown) [Compound I-674]
Observed efficacy (%) (Rhizoctonia solani; 63 g a.i./100 kg seeds): 5% | Observed efficacy (%) ([3]; table with fungicides F.1 to F.11, 33.7 g a.i./100 kg seeds): 21% | Observed efficacy (%) ([3]; table with insecticides A.1 to A.17, 33.7 g a.i./100 kg seeds): 28% | Observed efficacy (%) (Puccinia recondita; 250 g a.i./100 kg seeds): 0% | Observed efficacy (%) ([1]; 4 g a.i./100 kg seeds): 9% | Observed efficacy (%) ([1]; 250 g a.i./100 kg seeds): 21% | Observed efficacy (Altemaria solani; 63 ppm): 1%
